From US10376520B2, “Methods for the treatment of cardiovascular disorders” (Galapagos NV, priority 2015, dated 2019)

Tests used:
[1] = test system: Subjects With Active Crohn's Disease; assay: Atherogenic index, Study 5 (Crohn's disease); assay type: in vivo, human; conditions: for Atherogenic index Mean CFB - 10 weeks results / Atherogenic index Mean percentage CFB - 10 weeks results / Atherogenic index Median CFB - 10 weeks results: 200 mg q.d.
Text: As used herein, the term ‘atherogenic index’ refers to
This is a double-blind, randomized, placebo-controlled, multi-centre Phase 2 study to investigate the efficacy and safety of Compound 1 administered once daily for the treatment of active CD with evidence of mucosal ulceration. The pharmacokinetics (including a PK substudy) and pharmacodynamics of Compound 1 and metabolite in CD will also be characterised.
A total of 180 eligible subjects will be randomized to receive Compound 1 or placebo in addition to their stable background treatment (eg, corticosteroids, aminosalicylates, or CD-related antibiotics). The study will consist of 2 parts, with total treatment duration of 20 weeks. Randomization in Part 1 will be stratified according the subject's previous anti-TNF exposure/response, CRP level at Screening, and oral corticosteroid use at visit Day −1.
After the first 10 weeks of treatment in Part 1, patients will be re-randomized for Part 2 as shown in the diagram below and will be stratified according to the subject's clinical response, previous anti-TNF exposure/response, and oral corticosteroid use at visit Day −1.
The atherogenic index has been identified to be a good predictor of cardiovascular disorders risks and is calculated as follows: […]

RA patients = assay: CRP analysis (immunoturbidimetric assay), Study 1; assay type: in vivo, human
Description: Double-blind, placebo-controlled add on study in subjects with moderately to severely active RA who have an inadequate response to methotrexate (MTX) (oral or parenteral).
Compound 1 (dosed as a [Compound 1:HCl:3H2O]) is dosed for twelve weeks once daily (q.d.) (50 mg, 100 mg or 200 mg) or twice daily (b.i.d.) (25 mg, 50 mg or 100 mg); or placebo.
At Week 12, the subjects on placebo who have not achieved 20% improvement in swollen joint count (SJC66) and tender joint count (TJC68) are re-randomized automatically to receive Compound 1 (dosed as a [Compound 1:HCl:3H2O]) either at 100 mg q.d. or 50 mg b.i.d. doses in a blinded fashion; subjects on 50 mg q.d. who have not achieved 20% improvement in SJC66 and TJC68 will be assigned to 100 mg q.d. and subjects on 25 mg b.i.d. that have not achieved a 20% improvement in SJC66 and TJC68 will be assigned to 50 mg b.i.d. Subjects who switch treatment at week 12 are handled as if they discontinued at week 12 for the purpose of statistical analysis, whereas subjects in the other groups will maintain their randomized treatment until Week 24.
The determination of CRP is made using Immunoturbidimetric assay for the in vitro quantitative determination of CRP in human serum and plasma on Roche/Hitachi cobas c systems, wherein human CRP agglutinates with latex particles coated with monoclonal anti-CRP antibodies. The aggregates are determined turbidimetrically (Eda et al., 1998; Price et al., 1987).
Human serum and plasma samples [CRP] determination was done on a Roche/Hitachi Cobas c 301 c 501/502 system which automatically calculate the analyte concentration of each sample. Samples containing precipitates are centrifuged before performing the assay.
The Hommel-corrected p-value for the pairwise comparisons of each group with placebo is shown.
The number of subjects (N) provided in each groups corresponds to the number of patients starting the study in each group, and the ACR data reported below corresponds to the responding patients continuing for the entire 24 weeks on their initial treatment course.

[2] = 200 mg q.d. continued week 10 to 20, week 2
[3] = 200 mg q.d. continued week 10 to 20, week 4
[4] = 200 mg q.d. continued week 10 to 20, week 6
[5] = 200 mg q.d. continued week 10 to 20, week 10
[6] = 200 mg q.d. continued week 10 to 20, week 12
[7] = 200 mg q.d. continued week 10 to 20, week 16
[8] = 200 mg q.d. continued week 10 to 20, week 20
[9] = 200 mg q.d. week 0 to 10, to 100 mg q.d. week 10 to 20, week 2
[10] = 200 mg q.d. week 0 to 10, to 100 mg q.d. week 10 to 20, week 4
[11] = 200 mg q.d. week 0 to 10, to 100 mg q.d. week 10 to 20, week 6
[12] = 200 mg q.d. week 0 to 10, to 100 mg q.d. week 10 to 20, week 10
[13] = 200 mg q.d. week 0 to 10, to 100 mg q.d. week 10 to 20, week 12
[14] = 200 mg q.d. week 0 to 10, to 100 mg q.d. week 10 to 20, week 16
[15] = 200 mg q.d. week 0 to 10, to 100 mg q.d. week 10 to 20, week 20
[16] = 200 mg q.d. week 0 to 10, to placebo week 10 to 20, week 2
[17] = 200 mg q.d. week 0 to 10, to placebo week 10 to 20, week 4
[18] = 200 mg q.d. week 0 to 10, to placebo week 10 to 20, week 6
[19] = 200 mg q.d. week 0 to 10, to placebo week 10 to 20, week 10
[20] = 200 mg q.d. week 0 to 10, to placebo week 10 to 20, week 12
[21] = 200 mg q.d. week 0 to 10, to placebo week 10 to 20, week 16
[22] = 200 mg q.d. week 0 to 10, to placebo week 10 to 20, week 20
[23] = placebo week 0 to 10, to 100 mg q.d. week 10 to 20, week 12
[24] = placebo week 0 to 10, to 100 mg q.d. week 10 to 20, week 16
[25] = placebo week 0 to 10, to 100 mg q.d. week 10 to 20, week 20

O=C(Nc1nc2cccc(-c3ccc(CN4CCS(=O)(=O)CC4)cc3)n2n1)C1CC1 [Compound 1, cyclopropanecarboxylic acid {5-[4-(1,1-dioxo-thiomorpholin-4-ylmethyl)-phenyl]-[1,2,4]triazolo[1,5-a]pyridin-2yl}-amide]
Atherogenic index Mean percentage CFB - 20 weeks results [1, 2]: −6.93%
Atherogenic index Median CFB - 20 weeks results [1, 2]: -0.25 mmol/L
Atherogenic index Mean percentage CFB - 20 weeks results [1, 3]: −6.67%
Atherogenic index Median CFB - 20 weeks results [1, 3]: -0.21 mmol/L
Atherogenic index Mean percentage CFB - 20 weeks results [1, 4]: −8.51%
Atherogenic index Median CFB - 20 weeks results [1, 4]: -0.22 mmol/L
Atherogenic index Mean percentage CFB - 20 weeks results [1, 5]: −3.49%
Atherogenic index Median CFB - 20 weeks results [1, 5]: -0.13 mmol/L
Atherogenic index Mean percentage CFB - 20 weeks results [1, 6]: −1.27%
Atherogenic index Median CFB - 20 weeks results [1, 6]: -0.13 mmol/L
Atherogenic index Mean percentage CFB - 20 weeks results [1, 7]: −0.22%
Atherogenic index Median CFB - 20 weeks results [1, 7]: -0.06 mmol/L
Atherogenic index Mean percentage CFB - 20 weeks results [1, 8]: 3.38%
Atherogenic index Median CFB - 20 weeks results [1, 8]: 0.01 mmol/L
Atherogenic index Mean percentage CFB - 20 weeks results [1, 9]: −12.02%
Atherogenic index Median CFB - 20 weeks results [1, 9]: -0.37 mmol/L
Atherogenic index Mean percentage CFB - 20 weeks results [1, 10]: −12.95%
Atherogenic index Median CFB - 20 weeks results [1, 10]: -0.38 mmol/L
Atherogenic index Mean percentage CFB - 20 weeks results [1, 11]: −13.82%
Atherogenic index Median CFB - 20 weeks results [1, 11]: -0.48 mmol/L
Atherogenic index Mean percentage CFB - 20 weeks results [1, 12]: −11.54%
Atherogenic index Median CFB - 20 weeks results [1, 12]: -0.48 mmol/L
Atherogenic index Mean percentage CFB - 20 weeks results [1, 13]: −5.12%
Atherogenic index Median CFB - 20 weeks results [1, 13]: -0.25 mmol/L
Atherogenic index Mean percentage CFB - 20 weeks results [1, 14]: −4.54%
Atherogenic index Median CFB - 20 weeks results [1, 14]: -0.15 mmol/L
Atherogenic index Mean percentage CFB - 20 weeks results [1, 15]: −8.14%
Atherogenic index Median CFB - 20 weeks results [1, 15]: -0.39 mmol/L
Atherogenic index Mean percentage CFB - 20 weeks results [1, 16]: −7.38%
Atherogenic index Median CFB - 20 weeks results [1, 16]: -0.31 mmol/L
Atherogenic index Mean percentage CFB - 20 weeks results [1, 17]: −10.10%
Atherogenic index Median CFB - 20 weeks results [1, 17]: -0.29 mmol/L
Atherogenic index Mean percentage CFB - 20 weeks results [1, 18]: −2.55%
Atherogenic index Median CFB - 20 weeks results [1, 18]: -0.14 mmol/L
Atherogenic index Mean percentage CFB - 20 weeks results [1, 19]: −5.14%
Atherogenic index Median CFB - 20 weeks results [1, 19]: -0.19 mmol/L
Atherogenic index Mean percentage CFB - 20 weeks results [1, 20]: 9.34%
Atherogenic index Median CFB - 20 weeks results [1, 20]: 0.14 mmol/L
Atherogenic index Mean percentage CFB - 20 weeks results [1, 21]: 19.14%
Atherogenic index Median CFB - 20 weeks results [1, 21]: 0.35 mmol/L
Atherogenic index Mean percentage CFB - 20 weeks results [1, 22]: 19.82%
Atherogenic index Median CFB - 20 weeks results [1, 22]: 0.38 mmol/L
Atherogenic index Mean CFB - 10 weeks results ([1]; week 2): -0.31 mmol/L
Atherogenic index Mean percentage CFB - 10 weeks results ([1]; week 2): −8.20%
Atherogenic index Median CFB - 10 weeks results ([1]; week 2): -0.31 mmol/L
Atherogenic index Mean CFB - 10 weeks results ([1]; week 4): -0.33 mmol/L
Atherogenic index Mean percentage CFB - 10 weeks results ([1]; week 4): −8.79%
Atherogenic index Median CFB - 10 weeks results ([1]; week 4): -0.28 mmol/L
Atherogenic index Mean CFB - 10 weeks results ([1]; week 6): -0.32 mmol/L
Atherogenic index Mean percentage CFB - 10 weeks results ([1]; week 6): −8.69%
Atherogenic index Median CFB - 10 weeks results ([1]; week 6): -0.29 mmol/L
Atherogenic index Mean CFB - 10 weeks results ([1]; week 10): -0.25 mmol/L
Atherogenic index Mean percentage CFB - 10 weeks results ([1]; week 10): −5.98%
Atherogenic index Median CFB - 10 weeks results ([1]; week 10): -0.21 mmol/L
Atherogenic index Mean percentage CFB - 20 weeks results [1, 23]: 0.84%
Atherogenic index Median CFB - 20 weeks results [1, 23]: -0.10 mmol/L
Atherogenic index Mean percentage CFB - 20 weeks results [1, 24]: −0.97%
Atherogenic index Median CFB - 20 weeks results [1, 24]: -0.25 mmol/L
Atherogenic index Mean percentage CFB - 20 weeks results [1, 25]: 3.17%
Atherogenic index Median CFB - 20 weeks results [1, 25]: -0.10 mmol/L
CRP mean CFB (LOCF) - 24 weeks results (RA patients; 50 mg q.d., week 1): -7.95 mg/L
CRP mean CFB (LOCF) - 24 weeks results (RA patients; 50 mg q.d., week 2): -8.23 mg/L
CRP mean CFB (LOCF) - 24 weeks results (RA patients; 50 mg q.d., week 4): -10.18 mg/L
CRP mean CFB (LOCF) - CRP variation (RA patients; 50 mg q.d., week 8): -12.02 mg/L
CRP mean CFB (LOCF) - 24 weeks results (RA patients; 50 mg q.d., week 12): -13.15 mg/L
CRP mean CFB (LOCF) - 24 weeks results (RA patients; 100 mg q.d., week 1): -11.02 mg/L
CRP mean CFB (LOCF) - 24 weeks results (RA patients; 100 mg q.d., week 2): -12.94 mg/L
CRP mean CFB (LOCF) - 24 weeks results (RA patients; 100 mg q.d., week 4): -13.18 mg/L
CRP mean CFB (LOCF) - 24 weeks results (RA patients; 100 mg q.d., week 8): -12.48 mg/L
CRP mean CFB (LOCF) - 24 weeks results (RA patients; 100 mg q.d., week 12): -13.57 mg/L
CRP mean CFB (LOCF) - 24 weeks results (RA patients; 200 mg q.d., week 1): -17.06 mg/L
CRP mean CFB (LOCF) - 24 weeks results (RA patients; 200 mg q.d., week 2): -17.51 mg/L
CRP mean CFB (LOCF) - 24 weeks results (RA patients; 200 mg q.d., week 4): -17.94 mg/L
CRP mean CFB (LOCF) - 24 weeks results (RA patients; 200 mg q.d., week 8): -17.22 mg/L
CRP mean CFB (LOCF) - 24 weeks results (RA patients; 200 mg q.d., week 12): -17.24 mg/L
CRP mean CFB (LOCF) - 24 weeks results (RA patients; 2 × 25 mg b.i.d., Week 1): -8.47 mg/L
CRP mean CFB (LOCF) - 24 weeks results (RA patients; 2 × 25 mg b.i.d., Week 2): -10.06 mg/L
CRP mean CFB (LOCF) - 24 weeks results (RA patients; 2 × 25 mg b.i.d., Week 4): -7.72 mg/L
CRP mean CFB (LOCF) - 24 weeks results (RA patients; 2 × 25 mg b.i.d., Week 8): -10.94 mg/L
CRP mean CFB (LOCF) - 24 weeks results (RA patients; 2 × 25 mg b.i.d., Week 12): -10.26 mg/L
CRP mean CFB (LOCF) - 24 weeks results (RA patients; 2 × 25 mg b.i.d., Week 20): -12.20 mg/L
CRP mean CFB (LOCF) - 24 weeks results (RA patients; 2 × 50 mg b.i.d., Week 1): -10.08 mg/L
CRP mean CFB (LOCF) - 24 weeks results (RA patients; 2 × 50 mg b.i.d., Week 2): -11.03 mg/L
CRP mean CFB (LOCF) - 24 weeks results (RA patients; 2 × 50 mg b.i.d., Week 4): -13.28 mg/L
CRP mean CFB (LOCF) - 24 weeks results (RA patients; 2 × 50 mg b.i.d., Week 8): -13.25 mg/L
CRP mean CFB (LOCF) - 24 weeks results (RA patients; 2 × 50 mg b.i.d., Week 12): -12.97 mg/L
CRP mean CFB (LOCF) - 24 weeks results (RA patients; 2 × 100 mg b.i.d., Week 1): -17.39 mg/L
CRP mean CFB (LOCF) - 24 weeks results (RA patients; 2 × 100 mg b.i.d., Week 2): -19.69 mg/L
CRP mean CFB (LOCF) - 24 weeks results (RA patients; 2 × 100 mg b.i.d., Week 4): -20.64 mg/L
CRP mean CFB (LOCF) - 24 weeks results (RA patients; 2 × 100 mg b.i.d., Week 8): -21.32 mg/L
CRP mean CFB (LOCF) - 24 weeks results (RA patients; 2 × 100 mg b.i.d., Week 12): -20.54 mg/L
CRP mean CFB (LOCF) - 24 weeks results (RA patients; 2 × 100 mg b.i.d., Week 20): -20.80 mg/L
